Activity calls are given as the source filed them. The calls are words filed in the database; no cut-off is given here.
Experiments:
[1] = target: Cyclin-dependent kinase 1 (Homo sapiens, UniProt P06493); experiment: Inhibition of CDK1 (unknown origin)
[2] = target: Cyclin-dependent kinase 2 (Homo sapiens, UniProt P24941); experiment: Inhibition of CDK2 (unknown origin)
[3] = target: Cyclin-dependent kinase 5 (Homo sapiens, UniProt Q00535); experiment: Inhibition of CDK5 (unknown origin)
[4] = target: Cyclin-dependent kinase 6 (Homo sapiens, UniProt Q00534); experiment: Inhibition of CDK6 (unknown origin)
Cyclin-dependent kinase 6, sequence (Q00534 whole entry): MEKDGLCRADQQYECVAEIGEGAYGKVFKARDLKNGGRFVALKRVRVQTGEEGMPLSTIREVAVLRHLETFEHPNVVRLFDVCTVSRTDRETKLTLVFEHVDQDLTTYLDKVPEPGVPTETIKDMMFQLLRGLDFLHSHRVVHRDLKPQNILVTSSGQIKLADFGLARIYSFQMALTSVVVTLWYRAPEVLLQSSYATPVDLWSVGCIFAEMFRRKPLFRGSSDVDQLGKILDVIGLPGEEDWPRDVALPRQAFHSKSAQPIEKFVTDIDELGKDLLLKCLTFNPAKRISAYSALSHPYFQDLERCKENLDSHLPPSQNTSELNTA

[5] = target: Cyclin-dependent kinase 7 (Homo sapiens, UniProt P50613); experiment: Inhibition of CDK7 (unknown origin)
Cyclin-dependent kinase 7, sequence (P50613 whole entry): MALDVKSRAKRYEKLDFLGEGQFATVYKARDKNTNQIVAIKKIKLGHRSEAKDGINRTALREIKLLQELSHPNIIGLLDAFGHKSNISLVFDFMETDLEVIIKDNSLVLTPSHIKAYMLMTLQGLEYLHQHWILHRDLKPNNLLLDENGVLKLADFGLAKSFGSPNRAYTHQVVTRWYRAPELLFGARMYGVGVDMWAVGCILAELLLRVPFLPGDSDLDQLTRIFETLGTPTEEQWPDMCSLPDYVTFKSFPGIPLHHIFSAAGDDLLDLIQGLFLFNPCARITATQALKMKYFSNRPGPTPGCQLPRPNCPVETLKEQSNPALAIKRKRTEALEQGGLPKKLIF

[6] = target: Cyclin-dependent kinase 8 (Homo sapiens, UniProt P49336); experiment: Inhibition of CDK8 (unknown origin)
Cyclin-dependent kinase 8, sequence (P49336 whole entry): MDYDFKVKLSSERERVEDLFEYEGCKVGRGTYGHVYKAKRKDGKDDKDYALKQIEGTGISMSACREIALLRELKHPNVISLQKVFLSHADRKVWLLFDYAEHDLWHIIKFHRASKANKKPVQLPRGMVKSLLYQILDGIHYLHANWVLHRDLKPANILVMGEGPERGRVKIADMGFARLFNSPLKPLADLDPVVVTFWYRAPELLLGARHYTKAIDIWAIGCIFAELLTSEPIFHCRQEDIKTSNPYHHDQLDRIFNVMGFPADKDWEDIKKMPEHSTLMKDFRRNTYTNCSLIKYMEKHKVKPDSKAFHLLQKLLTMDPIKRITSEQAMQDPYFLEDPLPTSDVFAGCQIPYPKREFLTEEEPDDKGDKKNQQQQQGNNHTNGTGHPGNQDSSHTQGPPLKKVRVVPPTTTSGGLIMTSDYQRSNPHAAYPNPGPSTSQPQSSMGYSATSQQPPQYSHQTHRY

CYP2D6 = CYP2D6 (Homo sapiens, UniProt P10635); experiment: Inhibition of CYP2D6 in human liver microsomes using quinidine as […] at 10 uM preincubated for 10 mins followed by NADPH addition measured after 15 mins by LC-MS/MS analysis relative to control; type: ADME, Microsome; details: time 25 min
CYP2D6, sequence (P10635 whole entry): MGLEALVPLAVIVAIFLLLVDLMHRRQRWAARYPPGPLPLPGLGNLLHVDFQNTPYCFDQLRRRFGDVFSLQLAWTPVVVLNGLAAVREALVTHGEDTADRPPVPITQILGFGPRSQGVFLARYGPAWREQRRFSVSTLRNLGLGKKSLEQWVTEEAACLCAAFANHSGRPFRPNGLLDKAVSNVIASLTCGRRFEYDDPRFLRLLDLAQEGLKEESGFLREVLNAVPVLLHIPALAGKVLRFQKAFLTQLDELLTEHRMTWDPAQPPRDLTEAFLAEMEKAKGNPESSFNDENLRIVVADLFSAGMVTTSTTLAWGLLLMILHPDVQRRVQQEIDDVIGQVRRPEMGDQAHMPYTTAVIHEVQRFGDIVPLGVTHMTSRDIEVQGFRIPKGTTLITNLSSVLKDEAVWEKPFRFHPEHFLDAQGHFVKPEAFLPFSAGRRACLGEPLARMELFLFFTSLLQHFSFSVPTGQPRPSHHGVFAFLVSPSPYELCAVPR

SW480 = experiment: Growth inhibition of human SW480 cells incubated for 48 hrs by CCK-8 assay; type: functional
[7] = Half life in Sprague-Dawley rat at 2 mg/kg,iv administration measured for 0.25 to 24 hrs by LC-MS/MS analysis; type: ADME, organism-based; details: in vivo, time 0.25-24 hrs
[8] = Cmax in Sprague-Dawley rat at 2 mg/kg,iv administration measured for 0.25 to 24 hrs by LC-MS/MS analysis; type: ADME, organism-based; details: in vivo, time 0.25-24 hrs
[9] = C0 in Sprague-Dawley rat at 2 mg/kg,iv administration measured for 0.25 to 24 hrs by LC-MS/MS analysis; type: ADME, organism-based; details: in vivo, time 0.25-24 hrs
[10] = Bioavailability in Sprague-Dawley rat at 2 mg/kg,iv administration measured for 0.25 to 24 hrs by LC-MS/MS analysis; type: ADME, organism-based; details: in vivo, time 0.25-24 hrs
[11] = Half life in Sprague-Dawley rat at 10 mg/kg,po administration measured for 0.25 to 24 hrs by LC-MS/MS analysis; type: ADME, organism-based; details: in vivo, time 0.25-24 hrs
[12] = Cmax in Sprague-Dawley rat at 10 mg/kg,po administration measured for 0.25 to 24 hrs by LC-MS/MS analysis; type: ADME, organism-based; details: in vivo, time 0.25-24 hrs
[13] = target: Cyclin-dependent kinase 9 (Homo sapiens, UniProt P50750); experiment: Inhibition of human CDK9 at 100 nM by kinase profiling assay relative to control
Cyclin-dependent kinase 9, sequence (P50750 whole entry): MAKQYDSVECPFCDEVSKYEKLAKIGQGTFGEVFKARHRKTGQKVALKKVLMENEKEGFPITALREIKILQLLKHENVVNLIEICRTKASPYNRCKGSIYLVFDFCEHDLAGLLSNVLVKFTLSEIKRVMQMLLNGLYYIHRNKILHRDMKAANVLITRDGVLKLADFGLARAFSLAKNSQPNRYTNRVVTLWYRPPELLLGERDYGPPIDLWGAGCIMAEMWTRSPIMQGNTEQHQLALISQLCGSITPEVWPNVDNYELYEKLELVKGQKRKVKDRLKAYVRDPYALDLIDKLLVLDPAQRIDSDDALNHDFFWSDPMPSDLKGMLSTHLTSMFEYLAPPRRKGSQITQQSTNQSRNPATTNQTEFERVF

[14] = target: Aurora kinase B (Homo sapiens) (UniProt Q96GD4); experiment: Inhibition of human AurB at 100 nM by kinase profiling assay relative to control
Aurora kinase B (Homo sapiens), sequence (Q96GD4 whole entry): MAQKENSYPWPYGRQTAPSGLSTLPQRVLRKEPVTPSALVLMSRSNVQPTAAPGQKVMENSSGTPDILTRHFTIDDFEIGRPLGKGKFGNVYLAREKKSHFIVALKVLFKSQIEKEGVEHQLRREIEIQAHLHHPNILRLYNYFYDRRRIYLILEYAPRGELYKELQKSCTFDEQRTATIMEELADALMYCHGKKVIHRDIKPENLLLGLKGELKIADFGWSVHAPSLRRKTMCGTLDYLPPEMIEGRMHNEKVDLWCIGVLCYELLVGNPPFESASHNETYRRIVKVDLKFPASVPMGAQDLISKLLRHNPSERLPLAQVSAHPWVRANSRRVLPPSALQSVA

[15] = target: cAMP-dependent protein kinase catalytic subunit alpha (Homo sapiens) (UniProt P17612); experiment: Inhibition of human PKACalpha at 100 nM by kinase profiling assay relative to control
HCT-116 [16] = experiment: Induction of apoptosis in human HCT-116 cells assessed as increase in early apoptotic cells incubated for 48 hrs by Annexin V-FITC/PI staining based flow cytometric analysis; type: functional, cell-based
HCT-116 [17] = experiment: Induction of apoptosis in human HCT-116 cells assessed as effect on RNA polymerase II expression at 25 to 400 nM incubated for 48 hrs by Western blotting analysis; type: functional, cell-based; details: dose 25-400 nM
HCT-116 [18] = experiment: Induction of apoptosis in human HCT-116 cells assessed as downregulation of cleaved caspase-3 expression at 25 to 400 nM incubated for 48 hrs by Western blotting analysis; type: functional, cell-based; details: dose 25-400 nM
[19] = Toxicity in BALB/c mouse xenografted with human HCT-116 cells assessed as body weight loss at 50 mg/kg,po administrated once daily for 3 weeks; type: organism-based; details: in vivo, 504 h
HCT-116 [20] = experiment: Antitumor activity against human HCT-116 cells xenografted in BALB/c mouse assessed as downregulation of Mcl-1 expression at 25 mg/kg,po administrated once daily for 3 weeks by Western blotting analysis; type: functional, organism-based
[21] = Toxicity in BALB/c mouse xenografted with human HCT-116 cells assessed as liver morphological change at 25 mg/kg,po administrated once daily for 3 weeks by hematoxylin and eosin staining based microscopic analysis; type: organism-based; details: in vivo, 504 h

Cyclin-dependent kinase 5, sequence (Q00535 whole entry): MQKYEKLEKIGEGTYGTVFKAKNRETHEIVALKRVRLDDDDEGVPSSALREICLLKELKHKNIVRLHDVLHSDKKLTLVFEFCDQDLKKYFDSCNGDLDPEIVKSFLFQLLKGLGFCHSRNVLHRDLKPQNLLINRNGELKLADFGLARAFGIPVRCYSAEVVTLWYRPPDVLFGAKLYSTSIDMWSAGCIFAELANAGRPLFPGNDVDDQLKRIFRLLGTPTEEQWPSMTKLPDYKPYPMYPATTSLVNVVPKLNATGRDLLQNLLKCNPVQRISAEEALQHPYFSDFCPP
Cyclin-dependent kinase 1, sequence (P06493 whole entry): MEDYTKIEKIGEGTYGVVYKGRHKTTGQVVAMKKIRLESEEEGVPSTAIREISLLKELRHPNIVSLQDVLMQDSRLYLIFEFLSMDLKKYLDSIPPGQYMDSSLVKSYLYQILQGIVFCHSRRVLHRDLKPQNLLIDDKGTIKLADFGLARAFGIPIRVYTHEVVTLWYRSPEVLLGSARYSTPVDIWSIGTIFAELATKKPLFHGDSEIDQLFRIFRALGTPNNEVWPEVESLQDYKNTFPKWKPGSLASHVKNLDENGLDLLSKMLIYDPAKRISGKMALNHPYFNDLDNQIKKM

IC50 [1]: 0.439 µM
IC50 [2]: > 0.5 µM
IC50 [3]: > 0.5 µM
IC50 [4]: 0.209 µM
IC50 [5]: > 0.5 µM
IC50 [6]: > 0.5 µM
inhibition at 0.25 h, 10 µM (CYP2D6): 9.9%
GI50 (SW480): 5.09 µM
half-life [7]: 1.7 h
Cmax [8]: 0.358 µg/mL
C0 [9]: 0.459 µg/mL
bioavailability [10]: 12.3%
half-life [11]: 5.28 h
Cmax [12]: 0.039 µg/mL
inhibition [13]: > 90%
inhibition [14]: < 50%
inhibition [15]: < 50%
Compound: CC(C)n1nnc2ccc(-c3ccnc(Nc4cc(C(=O)N5CCCN(C)CC5)ccn4)c3)cc21
Activity (HCT-116 [16]): Dose-Dependent Effect
Activity (HCT-116 [17]): inactive
Activity (HCT-116 [18]): Active
Activity [19]: Non-Toxic
Activity (HCT-116 [20]): Active
Activity [21]: Non-Toxic
